According to ChEMBL document CHEMBL1201862, “PubChem BioAssay data set” (2004):
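All cell lines were grown in 96-well plates and treated with compound for 48 hours. Abbreviation: GI50, concentration required for 50% inhibition of growth.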 Activity calls are given as the source filed them. No stated cut-off is given here; in the data, active = GI50 up to about 1.1 µM and inactive = higher.

Assays:
Test in all cases: NCI tumour cell line growth inhibition, 48 h
SF-295 = test system: SF-295
MOLT-4 = test system: MOLT-4
LXFL 529 = test system: LXFL 529
UACC-62 = test system: UACC-62
UACC-257 = test system: UACC-257
COLO 205 = test system: COLO 205
HCT-15 = test system: HCT-15
KM-20L2 = test system: KM-20L2
OVCAR-5 = test system: OVCAR-5
SR = test system: SR
K562 = test system: K562
KM12 = test system: KM12
SNB-78 = test system: SNB-78
SF-539 = test system: SF-539
UO-31 = test system: UO-31
RXF 393 = test system: RXF 393
LOX IMVI = test system: LOX IMVI
EKVX = test system: EKVX
M14 = test system: M14
Malme-3M = test system: Malme-3M
XF498 = test system: XF498
A498 = test system: A498
HOP-92 = test system: HOP-92
U-251 = test system: U-251
SNB-19 = test system: SNB-19
HOP-18 = test system: HOP-18
HCT-116 = test system: HCT-116
HL-60 = test system: HL-60
SK-OV-3 = test system: SK-OV-3
NCI-H522 = test system: NCI-H522
SK-MEL-28 = test system: SK-MEL-28
OVCAR-8 = test system: OVCAR-8
SK-MEL-2 = test system: SK-MEL-2
NCI-H460 = test system: NCI-H460
CCRF-CEM = test system: CCRF-CEM
M19-MEL = test system: M19-MEL
786-0 = test system: 786-0
DMS-114 = test system: DMS-114
NCI-H23 = test system: NCI-H23
DLD-1 = test system: DLD-1
OVCAR-3 = test system: OVCAR-3
TK-10 = test system: TK-10
HCC 2998 = test system: HCC 2998
CAKI-1 = test system: CAKI-1
RPMI-8226 = test system: RPMI-8226
HT-29 = test system: HT-29
SN12C = test system: SN12C
NCI-H226 = test system: NCI-H226
HOP-62 = test system: HOP-62
IGROV-1 = test system: IGROV-1
SNB-75 = test system: SNB-75
DMS-273 = test system: DMS-273
SW-620 = test system: SW-620
OVCAR-4 = test system: OVCAR-4
ACHN = test system: ACHN
SF-268 = test system: SF-268
A549 = test system: A549
SK-MEL-5 = test system: SK-MEL-5

N[C@H](COCc1ccccc1)c1ccccc1
GI50 (SF-295): 30.5 µM (inactive) | GI50 (MOLT-4): 16.7 µM (inactive) | GI50 (LXFL 529): 20.5 µM (inactive) | GI50 (UACC-62): 32.1 µM (inactive) | GI50 (UACC-257): 28.1 µM (inactive) | GI50 (COLO 205): 14.9 µM (inactive) | GI50 (HCT-15): > 50.5 µM | GI50 (KM-20L2): 24.5 µM (inactive) | GI50 (OVCAR-5): 24.9 µM (inactive) | GI50 (SR): 23.3 µM (inactive) | GI50 (K562): 28 µM (inactive) | GI50 (KM12): 27.4 µM (inactive) | GI50 (SNB-78): 33.4 µM (inactive) | GI50 (SF-539): 27.9 µM (inactive) | GI50 (UO-31): 30.3 µM (inactive) | GI50 (RXF 393): 27.3 µM (inactive) | GI50 (LOX IMVI): 29.3 µM (inactive) | GI50 (EKVX): 33 µM (inactive) | GI50 (M14): 23.1 µM (inactive) | GI50 (Malme-3M): 33.4 µM (inactive) | GI50 (XF498): 21.1 µM (inactive) | GI50 (A498): 32.4 µM (inactive) | GI50 (HOP-92): 23.1 µM (inactive) | GI50 (U-251): > 56 µM (inactive) | GI50 (SNB-19): 30.6 µM (inactive) | GI50 (HOP-18): 25.9 µM (inactive) | GI50 (HCT-116): 22.5 µM (inactive) | GI50 (HL-60): 11.9 µM (inactive) | GI50 (SK-OV-3): 29.6 µM (inactive) | GI50 (NCI-H522): 16.5 µM (inactive) | GI50 (SK-MEL-28): 59.8 µM (inactive) | GI50 (OVCAR-8): 35.6 µM (inactive) | GI50 (SK-MEL-2): 21.1 µM (inactive) | GI50 (NCI-H460): 22.8 µM (inactive) | GI50 (CCRF-CEM): 23.8 µM (inactive) | GI50 (M19-MEL): 25 µM (inactive) | GI50 (786-0): 29.3 µM (inactive) | GI50 (DMS-114): 23.2 µM (inactive) | GI50 (NCI-H23): 23 µM (inactive) | GI50 (DLD-1): 24.9 µM (inactive) | GI50 (OVCAR-3): 26.7 µM (inactive) | GI50 (TK-10): 32.1 µM (inactive) | GI50 (HCC 2998): 29.9 µM (inactive) | GI50 (CAKI-1): 23.7 µM (inactive) | GI50 (RPMI-8226): 13.1 µM (inactive) | GI50 (HT-29): 28.8 µM (inactive) | GI50 (SN12C): 27.7 µM (inactive) | GI50 (NCI-H226): 27.7 µM (inactive) | GI50 (HOP-62): > 46.5 µM (inactive) | GI50 (IGROV-1): 39 µM (inactive) | GI50 (SNB-75): 20 µM (inactive) | GI50 (DMS-273): 23.1 µM (inactive) | GI50 (SW-620): 28.2 µM (inactive) | GI50 (OVCAR-4): 20.7 µM (inactive) | GI50 (ACHN): 31.5 µM (inactive) | GI50 (SF-268): 42.1 µM (inactive) | GI50 (A549): 33.5 µM (inactive) | GI50 (SK-MEL-5): 20.1 µM (inactive)
